US20120022099A1, “NOVEL POLYMORPHIC FORMS OF AN AZABICYCLO-TRIFLUOROMETHYL BENZAMIDE DERIVATIVE” (SANOFI, priority 2008, published 2012)

Experiments:
[1] = system: hippocampal dentate gyrus; conditions: induced by high-frequency electrical stimulation of the afferent perforant pathway; cited from earlier work
[2] = system: c-Fos immunoreactivity; conditions: in vivo; cited from earlier work
[3] = target: T1, GLYT-1 (Homo sapiens, UniProt P48067); conditions: in vitro; cited from earlier work
T1 sequence (P48067 1-706): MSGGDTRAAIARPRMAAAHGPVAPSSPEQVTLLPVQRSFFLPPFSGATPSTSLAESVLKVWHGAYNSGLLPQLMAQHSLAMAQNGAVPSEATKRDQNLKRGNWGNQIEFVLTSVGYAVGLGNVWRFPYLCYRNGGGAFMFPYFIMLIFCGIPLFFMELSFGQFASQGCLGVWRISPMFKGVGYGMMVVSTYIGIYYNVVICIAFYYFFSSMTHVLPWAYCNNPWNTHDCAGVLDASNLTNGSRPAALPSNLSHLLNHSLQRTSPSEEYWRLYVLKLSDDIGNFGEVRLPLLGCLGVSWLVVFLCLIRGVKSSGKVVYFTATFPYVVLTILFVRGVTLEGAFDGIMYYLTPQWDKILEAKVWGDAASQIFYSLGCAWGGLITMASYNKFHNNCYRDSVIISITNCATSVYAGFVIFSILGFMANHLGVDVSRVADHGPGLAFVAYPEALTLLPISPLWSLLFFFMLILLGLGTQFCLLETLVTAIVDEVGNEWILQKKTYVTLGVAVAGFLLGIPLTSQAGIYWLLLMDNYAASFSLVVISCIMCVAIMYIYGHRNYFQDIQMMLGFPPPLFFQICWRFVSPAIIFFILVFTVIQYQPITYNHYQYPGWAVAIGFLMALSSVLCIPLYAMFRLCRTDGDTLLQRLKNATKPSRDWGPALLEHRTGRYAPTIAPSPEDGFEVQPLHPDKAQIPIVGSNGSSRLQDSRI

[4] = system: NMDA receptor; conditions: cited from earlier work
[5] = system: DBA/2J mice; conditions: strain with low basal pre-pulse inhibition; cited from earlier work
[6] = Stability of the solid form, conversion between polymorphs; assay type: physicochemical; conditions: for stability of the polymorphic form: hydrochloride
[7] = Thermal decomposition on drying by heating; assay type: physicochemical; conditions: drying through heating to release residual solvents
[8] = Solubility in water

SMILES: CN(CCC(Oc1ccc(-c2ccccc2)cc1)c1ccc(F)cc1)CC(=O)O (racemic) [(+/−)-NFPS, N-[3-(4′-fluorophenyl)-3-(4′-phenylphenoxy)propyl]sarcosine]
- long-term potentiation [1]: significantly enhanced

SMILES: CN(CCC(Oc1ccc(-c2ccccc2)cc1)c1ccc(F)cc1)CC(=O)O (single isomer, unassigned; (+)) [(+)-NFPS, (+)N-[3-(4′-fluorophenyl)-3-(4′-phenylphenoxy)-propyl]sarcosine]
- pattern of c-Fos immunoreactivity [2]: comparable with the atypical anti-psychotic clozapine
- activity relative to the racemic compound [3]: greater than 10 fold
- NMDA-induced [3H]GABA release [4]: significantly stimulated
- pre-pulse inhibition of the acoustic startle response [5]: enhanced

SMILES: Cl.O=C(N[C@@H](c1ccccc1)[C@@H]1CC2CCN1CC2)c1c(Cl)ccc(C(F)(F)F)c1Cl [Form A, N—[(S)-2(S)-1-azabicyclo[2.2.2]oct-2-yl(phenyl)methyl]-2,6-dichloro-3-(trifluoromethyl)benzamide hydrochloride]
- stability of the polymorphic form ([6]; listed as polymorph A): highly stable
- temperature above which thermal decomposition of the compound occurs [7]: above 220 °C

SMILES: Cl.O=C(N[C@@H](c1ccccc1)[C@@H]1CC2CCN1CC2)c1c(Cl)ccc(C(F)(F)F)c1Cl [Form B, N—[(S)-2(S)-1-azabicyclo[2.2.2]oct-2-yl(phenyl)methyl]-2,6-dichloro-3-(trifluoromethyl)benzamide hydrochloride]
- conversion to polymorph A ([6]; aqueous system): readily converts to the desired polymorph A
- stability of the polymorphic form [6]: lower stability than Form A
- solubility [8]: > 200 mg/mL
- solubility in water ([8]; 45° C.): highly soluble in water
